Laboratory results reported in patent US10131652B2, “Pyrimidinyloxy benzene derivatives as herbicides” (E. I. DU PONT DE NEMOURS AND COMPANY, priority 2014, dated 2018).

How the values were obtained:
Format in all cases: in vivo
[1] = system: small-flower umbrella sedge (Cyperus difformis); assay: Test C flooded paddy test plant response; conditions: Flood, 250 g ai/ha; scale of 0 to 100 where 0 is no effect and 100 is complete control; 13 to 15 days
How it was run: (§1)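 Greenhouse paddy assay, 13–15 days. Treatment into 3 cm floodwater over 2-leaf plants; visual 0–100 rating against controls.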

[2] = system: barnyardgrass (Echinochloa crus-galli); assay: Test C flooded paddy test plant response; conditions: Flood, 250 g ai/ha; scale of 0 to 100 where 0 is no effect and 100 is complete control; 13 to 15 days
How it was run: as §1

rice (Oryza sativa) = assay: Test C flooded paddy test plant response; conditions: Flood, 250 g ai/ha; scale of 0 to 100 where 0 is no effect and 100 is complete control; 13 to 15 days
How it was run: as §1

[3] = system: ducksalad (Heteranthera limosa); assay: Test C flooded paddy test plant response; conditions: Flood, 250 g ai/ha; scale of 0 to 100 where 0 is no effect and 100 is complete control; 13 to 15 days
How it was run: as §1

soybean (Glycine max) = assay: Test D pre-/postemergence plant response
How it was run: (§2)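 Each compound, in non-phytotoxic solvent with surfactant, was sprayed onto soil right after sowing or onto young plants 2 to 18 cm tall. After 13 to 15 days under greenhouse conditions, effects were judged visually against controls on a 0 (no effect) to 100 (complete control) scale.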

[4] = system: velvetleaf (Abutilon theophrasti); assay: Test D pre-/postemergence plant response
How it was run: as §2

[5] = system: johnsongrass (Sorghum halepense); assay: Test D pre-/postemergence plant response
How it was run: as §2

[6] = system: oilseed rape (Brassica napus); assay: Test D pre-/postemergence plant response
How it was run: as §2

[7] = system: yellow nutsedge (Cyperus esculentus); assay: Test D pre-/postemergence plant response
How it was run: as §2

[8] = system: large (Lg) crabgrass (Digitaria sanguinalis); assay: Test D pre-/postemergence plant response
How it was run: as §2

[9] = system: winter wheat (Triticum aestivum); assay: Test D pre-/postemergence plant response
How it was run: as §2

kochia (Kochia scoparia) = assay: Test D postemergence plant response; conditions: for Kochia plant response rating: 31 g ai/ha, scale 0 to 100 (0 no effect, 100 complete control); for Plant response rating, Kochia: scale 0 to 100, 0 no effect, 100 complete control
How it was run: (§3)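 The formulated test chemicals were applied over the foliage of young potted plants (2 to 18 cm tall), which were then held under greenhouse conditions. Between days 13 and 15 each species was rated by eye versus controls, from 0 for no effect up to 100 for complete control.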

[10] = system: chickweed (common chickweed, Stellaria media); assay: Test D postemergence plant response; conditions: for Chickweed plant response rating: scale 0 to 100 (0 no effect, 100 complete control); for Plant response rating, Chickweed: scale 0 to 100, 0 no effect, 100 complete control
How it was run: as §3

wild oat (Avena fatua) = assay: Test D postemergence plant response
How it was run: as §3

[11] = Postemergence, 31 g ai/ha, scale 0 to 100 (0 no effect, 100 complete control)
[12] = Postemergence, 62 g ai/ha, scale 0 to 100, 0 no effect, 100 complete control
[13] = Postemergence, 125 g ai/ha, scale 0 to 100, 0 no effect, 100 complete control
[14] = Preemergence, 16 g ai/ha, scale 0 to 100 (0 no effect, 100 complete control)
[15] = Preemergence, 31 g ai/ha, scale 0 to 100 (0 no effect, 100 complete control)
[16] = Preemergence, 62 g ai/ha, scale 0 to 100 (0 no effect, 100 complete control)
[17] = 31 g ai/ha, scale 0 to 100 (0 no effect, 100 complete control)
[18] = 62 g ai/ha, scale 0 to 100, 0 no effect, 100 complete control
[19] = 125 g ai/ha, scale 0 to 100, 0 no effect, 100 complete control

With `N#Cc1cccc(Oc2ncc(Cl)cn2)c1-c1cc(C(F)F)on1` [Compound 180] the “Sedge, Umbrella plant response rating” value [1] was 80, the “Barnyardgrass plant response rating” value [2] was 0 and the “Rice plant response rating” value (rice (Oryza sativa)) was 0. The “Ducksalad plant response rating” value [3] was 90, the “Plant response rating (scale 0 to 100), Soybean” value (soybean (Glycine max); Postemergence, 16 g ai/ha) was 45 and the “Soybean plant response rating” value (soybean (Glycine max); [11]) was 60. The “Soybean plant response rating” value (soybean (Glycine max); [12]) was 70, the “Plant response rating, Soybean” value (soybean (Glycine max); [13]) was 85 and the “Plant response rating (scale 0 to 100), Soybean” value (soybean (Glycine max); Preemergence, 125 g ai/ha) was 80. For the same compound, the “Plant response rating, Soybean” value (soybean (Glycine max); [14]) was 5, the “Plant response rating, Soybean” value (soybean (Glycine max); [15]) was 25 and the “Plant response rating, Soybean” value (soybean (Glycine max); [16]) was 60. The “Plant response rating (scale 0 to 100), Velvetleaf” value ([4]; Postemergence, 16 g ai/ha) was 45, the “Velvetleaf plant response rating” value [4, 11] was 40 and the “Velvetleaf plant response rating” value [4, 12] was 35. For the same compound, the “Plant response rating, Velvetleaf” value [4, 13] was 55, the “Plant response rating (scale 0 to 100), Velvetleaf” value ([4]; Preemergence, 125 g ai/ha) was 100 and the “Plant response rating, Velvetleaf” value [4, 14] was 75. For the same compound, the “Plant response rating, Velvetleaf” value [4, 15] was 85, the “Plant response rating, Velvetleaf” value [4, 16] was 90 and the “Plant response rating (scale 0 to 100), Johnsongrass” value ([5]; Postemergence, 16 g ai/ha) was 0. For the same compound, the “Johnsongrass plant response rating” value [5, 11] was 0, the “Plant response rating, Johnsongrass” value [5, 12] was 5 and the “Plant response rating, Johnsongrass” value [5, 13] was 5. The “Plant response rating (scale 0 to 100), Johnsongrass” value ([5]; Preemergence, 125 g ai/ha) was 90, the “Plant response rating, Johnsongrass” value [5, 14] was 0 and the “Plant response rating, Johnsongrass” value [5, 15] was 10. For the same compound, the “Plant response rating, Johnsongrass” value [5, 16] was 60, the “Plant response rating (scale 0 to 100), Oilseed Rape” value ([6]; Postemergence, 16 g ai/ha) was 5 and the “Oilseed Rape plant response rating” value [6, 11] was 60. The “Oilseed Rape plant response rating” value [6, 12] was 80, the “Plant response rating, Oilseed Rape” value [6, 13] was 90 and the “Plant response rating (scale 0 to 100), Oilseed Rape” value ([6]; Preemergence, 125 g ai/ha) was 100. For the same compound, the “Plant response rating, Oilseed Rape” value [6, 14] was 70, the “Plant response rating, Oilseed Rape” value [6, 15] was 95 and the “Plant response rating, Oilseed Rape” value [6, 16] was 100. For the same compound, the “Plant response rating (scale 0 to 100), Nutsedge, Yellow” value ([7]; Postemergence, 16 g ai/ha) was 0, the “Nutsedge, Yellow plant response rating” value [7, 11] was 0 and the “Nutsedge, Yellow plant response rating” value [7, 12] was 10. The “Plant response rating, Nutsedge, Yellow” value [7, 13] was 15, the “Plant response rating (scale 0 to 100), Nutsedge, Yellow” value ([7]; Preemergence, 125 g ai/ha) was 30 and the “Plant response rating, Nutsedge, Yellow” value [7, 14] was 0. For the same compound, the “Plant response rating, Nutsedge, Yellow” value [7, 15] was 0, the “Plant response rating, Nutsedge, Yellow” value [7, 16] was 0 and the “Plant response rating (scale 0 to 100), Crabgrass, Large” value ([8]; Postemergence, 16 g ai/ha) was 5. The “Crabgrass, Large plant response rating” value [8, 11] was 5, the “Plant response rating, Crabgrass, Large” value [8, 12] was 5 and the “Plant response rating, Crabgrass, Large” value [8, 13] was 5. The “Plant response rating (scale 0 to 100), Crabgrass, Large” value ([8]; Preemergence, 125 g ai/ha) was 100, the “Plant response rating, Crabgrass, Large” value [8, 14] was 30 and the “Plant response rating, Crabgrass, Large” value [8, 15] was 75. For the same compound, the “Plant response rating, Crabgrass, Large” value [8, 16] was 100, the “Plant response rating (scale 0 to 100), Wheat” value ([9]; Postemergence, 16 g ai/ha) was 5 and the “Wheat plant response rating” value [9, 11] was 5. For the same compound, the “Wheat plant response rating” value [9, 12] was 15, the “Plant response rating, Wheat” value [9, 13] was 30 and the “Plant response rating (scale 0 to 100), Wheat” value ([9]; Preemergence, 125 g ai/ha) was 30. The “Plant response rating, Wheat” value [9, 14] was 0, the “Plant response rating, Wheat” value [9, 15] was 0 and the “Plant response rating, Wheat” value [9, 16] was 0. For the same compound, the “Plant response rating (scale 0 to 100), Kochia” value (kochia (Kochia scoparia); 16 g ai/ha) was 85, the “Kochia plant response rating” value (kochia (Kochia scoparia)) was 90 and the “Plant response rating, Kochia” value (kochia (Kochia scoparia); 62 g ai/ha) was 100. For the same compound, the “Plant response rating, Kochia” value (kochia (Kochia scoparia); 125 g ai/ha) was 100, the “Plant response rating (scale 0 to 100), Chickweed” value ([10]; 16 g ai/ha) was 60 and the “Chickweed plant response rating” value ([10]; 31 g ai/ha) was 60. The “Plant response rating, Chickweed” value ([10]; 62 g ai/ha) was 85, the “Plant response rating, Chickweed” value ([10]; 125 g ai/ha) was 95 and the “Plant response rating (scale 0 to 100), Oat, Wild” value (wild oat (Avena fatua); 16 g ai/ha) was 0. For the same compound, the “Oat, Wild plant response rating” value (wild oat (Avena fatua); [17]) was 5, the “Oat, Wild plant response rating” value (wild oat (Avena fatua); [18]) was 5 and the “Plant response rating, Oat, Wild” value (wild oat (Avena fatua); [19]) was 30.

`FC(F)c1cc(-c2c(Cl)cccc2Oc2ncc(Br)cn2)on1` [Compound 121] was tested, and the “Sedge, Umbrella plant response rating” value [1] was 90, the “Barnyardgrass plant response rating” value [2] was 60 and the “Rice plant response rating” value (rice (Oryza sativa)) was 45. The “Ducksalad plant response rating” value [3] was 90, the “Soybean plant response rating” value (soybean (Glycine max); [11]) was 60 and the “Plant response rating, Soybean” value (soybean (Glycine max); [12]) was 90. For the same compound, the “Plant response rating, Soybean” value (soybean (Glycine max); [13]) was 95, the “Velvetleaf plant response rating” value [4, 11] was 80 and the “Plant response rating, Velvetleaf” value [4, 12] was 80. For the same compound, the “Plant response rating, Velvetleaf” value [4, 13] was 85, the “Johnsongrass plant response rating” value [5, 11] was 35 and the “Plant response rating, Johnsongrass” value [5, 12] was 60. The “Plant response rating, Johnsongrass” value [5, 13] was 60, the “Oilseed Rape plant response rating” value [6, 11] was 80 and the “Plant response rating, Oilseed Rape” value [6, 12] was 95. For the same compound, the “Plant response rating, Oilseed Rape” value [6, 13] was 95, the “Nutsedge, Yellow plant response rating” value [7, 11] was 10 and the “Plant response rating, Nutsedge, Yellow” value [7, 12] was 5. For the same compound, the “Plant response rating, Nutsedge, Yellow” value [7, 13] was 20, the “Crabgrass, Large plant response rating” value ([8]; Postemergence, 16 g ai/ha, scale 0 to 100 (0 no effect, 100 complete control)) was 15 and the “Crabgrass, Large plant response rating” value [8, 11] was 10. For the same compound, the “Plant response rating, Crabgrass, Large” value [8, 12] was 40, the “Plant response rating, Crabgrass, Large” value [8, 13] was 55 and the “Wheat plant response rating” value [9, 11] was 0. For the same compound, the “Plant response rating, Wheat” value [9, 12] was 0, the “Plant response rating, Wheat” value [9, 13] was 0 and the “Kochia plant response rating” value (kochia (Kochia scoparia)) was 100. For the same compound, the “Plant response rating, Kochia” value (kochia (Kochia scoparia); 62 g ai/ha) was 100, the “Plant response rating, Kochia” value (kochia (Kochia scoparia); 125 g ai/ha) was 100 and the “Chickweed plant response rating” value ([10]; 16 g ai/ha) was 95. For the same compound, the “Chickweed plant response rating” value ([10]; 31 g ai/ha) was 100, the “Plant response rating, Chickweed” value ([10]; 62 g ai/ha) was 100 and the “Plant response rating, Chickweed” value ([10]; 125 g ai/ha) was 100. The “Oat, Wild plant response rating” value (wild oat (Avena fatua); [17]) was 45, the “Plant response rating, Oat, Wild” value (wild oat (Avena fatua); [18]) was 70 and the “Plant response rating, Oat, Wild” value (wild oat (Avena fatua); [19]) was 70.
